From PubChem BioAssay (NCI)
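How tested: cells in 96-well plates exposed to compound for 48 hours at five concentrations. GI50 is the concentration that inhibits growth by half. TGI marks complete inhibition of growth.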

Key:
Assay in all cases: NCI-60 cell line screen, 48 h
[1] = system: OVCAR-5 ovarian
[2] = system: UACC-62 melanoma
[3] = system: OVCAR-4 ovarian
[4] = system: COLO 205 colon
[5] = system: OVCAR-3 ovarian
[6] = system: LOX IMVI melanoma
[7] = system: EKVX NSCLC
[8] = system: SK-MEL-28 melanoma
[9] = system: DU-145 prostate
[10] = system: SNB-19 CNS
[11] = system: UO-31 renal
[12] = system: K-562 leukemia
[13] = system: A549 NSCLC
[14] = system: MDA-MB-231 breast
[15] = system: SK-MEL-5 melanoma
[16] = system: MOLT-4 leukemia
[17] = system: KM12 colon
[18] = system: A498 renal
[19] = system: MALME-3M melanoma
[20] = system: HOP-92 NSCLC
[21] = system: NCI-H522 lung
[22] = system: MDA-MB-435
[23] = system: 786-0 renal
[24] = system: HL-60(TB) leukemia
[25] = system: SN12C renal
[26] = system: NCI-H23 lung
[27] = system: NCI/ADR-RES ovarian
[28] = system: HOP-62 NSCLC
[29] = system: UACC-257 melanoma
[30] = system: PC-3 prostate
[31] = system: SR leukemia
[32] = system: OVCAR-8 ovarian
[33] = system: HS 578T breast
[34] = system: HCT-15 colon
[35] = system: IGROV1 ovarian
[36] = system: RPMI-8226 leukemia
[37] = system: HCC-2998 colon
[38] = system: RXF 393 renal
[39] = system: SF-268 CNS
[40] = system: TK-10 renal
[41] = system: CAKI-1 renal
[42] = system: HCT-116 colon
[43] = system: SF-539 CNS
[44] = system: SF-295 CNS
[45] = system: NCI-H226 lung
[46] = system: ACHN renal
[47] = system: SK-MEL-2 melanoma
[48] = system: SNB-75 CNS
[49] = system: SK-OV-3 ovarian
[50] = system: U251 CNS
[51] = system: MCF7 breast
[52] = system: NCI-H460 lung
[53] = system: M14 melanoma
[54] = system: HT29 colon
[55] = system: T-47D breast
[56] = system: SW-620 colon

For O=C1/C(=C/c2ccccc2O)N=C(c2ccccc2)N1c1cc(C(F)(F)F)ccc1Cl, the GI50 [1] was > 100 µM, the TGI [1] was > 100 µM and the GI50 [2] was 69.3 µM. The TGI [2] was > 100 µM, the GI50 [3] was > 100 µM and the TGI [3] was > 100 µM. For the same compound, the GI50 [4] was > 100 µM, the TGI [4] was > 100 µM and the GI50 [5] was 54.2 µM. The TGI [5] was > 100 µM, the GI50 [6] was 40.8 µM and the TGI [6] was > 100 µM. For the same compound, the GI50 [7] was 38.3 µM, the TGI [7] was > 100 µM and the GI50 [8] was > 100 µM. The TGI [8] was > 100 µM, the GI50 [9] was 43.8 µM and the TGI [9] was > 100 µM. The GI50 [10] was 31.6 µM, the TGI [10] was > 100 µM and the GI50 [11] was 94.2 µM. The TGI [11] was > 100 µM, the GI50 [12] was > 100 µM and the TGI [12] was > 100 µM. The GI50 [13] was 75.7 µM, the TGI [13] was > 100 µM and the GI50 [14] was 20.7 µM. For the same compound, the TGI [14] was 71.2 µM, the GI50 [15] was 62.2 µM and the TGI [15] was > 100 µM. The GI50 [16] was > 100 µM, the TGI [16] was > 100 µM and the GI50 [17] was 8.29 µM. The TGI [17] was > 100 µM, the GI50 [18] was 59.4 µM and the TGI [18] was > 100 µM. For the same compound, the GI50 [19] was 46.7 µM, the TGI [19] was > 100 µM and the GI50 [20] was 19.1 µM. For the same compound, the TGI [20] was 53 µM, the GI50 [21] was 48.4 µM and the TGI [21] was > 100 µM. For the same compound, the GI50 [22] was 22.1 µM, the TGI [22] was > 100 µM and the GI50 [23] was 18.3 µM. For the same compound, the TGI [23] was 44.1 µM, the GI50 [24] was > 100 µM and the TGI [24] was > 100 µM. The GI50 [25] was 53.6 µM, the TGI [25] was > 100 µM and the GI50 [26] was 80.1 µM. The TGI [26] was > 100 µM, the GI50 [27] was 46.6 µM and the TGI [27] was > 100 µM. For the same compound, the GI50 [28] was 15.9 µM, the TGI [28] was 30.4 µM and the GI50 [29] was > 100 µM. The TGI [29] was > 100 µM, the GI50 [30] was 42.7 µM and the TGI [30] was > 100 µM. The GI50 [31] was 5.51 µM, the TGI [31] was > 100 µM and the GI50 [32] was 46.3 µM. For the same compound, the TGI [32] was > 100 µM, the GI50 [33] was 22.8 µM and the TGI [33] was 60.3 µM. The GI50 [34] was 64.7 µM, the TGI [34] was > 100 µM and the GI50 [35] was 14.3 µM. The TGI [35] was 64.3 µM, the GI50 [36] was > 100 µM and the TGI [36] was > 100 µM. The GI50 [37] was > 100 µM, the TGI [37] was > 100 µM and the GI50 [38] was 29.9 µM. It also gave a TGI [38] of 81.3 µM, a GI50 [39] of 26.2 µM and a TGI [39] of 97.4 µM. For the same compound, the GI50 [40] was 18.9 µM, the TGI [40] was 43.7 µM and the GI50 [41] was 14.3 µM. For the same compound, the TGI [41] was 38.5 µM, the GI50 [42] was 25 µM and the TGI [42] was > 100 µM. For the same compound, the GI50 [43] was 59.5 µM, the TGI [43] was > 100 µM and the GI50 [44] was 23.2 µM. The TGI [44] was 52.6 µM, the GI50 [45] was 33 µM and the TGI [45] was > 100 µM. The GI50 [46] was 18.6 µM, the TGI [46] was 51.4 µM and the GI50 [47] was > 100 µM. The TGI [47] was > 100 µM, the GI50 [48] was 18.1 µM and the TGI [48] was 37.7 µM. The GI50 [49] was 43.7 µM, the TGI [49] was > 100 µM and the GI50 [50] was 23.3 µM. The TGI [50] was 61.9 µM, the GI50 [51] was 3.04 µM and the TGI [51] was > 100 µM. The GI50 [52] was > 100 µM, the TGI [52] was > 100 µM and the GI50 [53] was 62.5 µM. The TGI [53] was > 100 µM, the GI50 [54] was > 100 µM and the TGI [54] was > 100 µM. The GI50 [55] was 6.68 µM, the TGI [55] was > 100 µM and the GI50 [56] was > 100 µM. The TGI [56] was > 100 µM.
